Test results taken from patent publication US10212937B2, “Microbicidal aqueous solutions including a monochloramine and a peracid, and methods of using the same” (priority 2015, dated 2019).

Columns and labels:
[1] = tested on: Enterobacter aerogenes; experiment: Microbicidal evaluation in nutrient broth, lowest concentration completely preventing growth, Kull synergism calculation; assay type: cell-based; settings: contact time 15 hours
Description: (§1) Nutrient broth (2.5 g/liter of deionized water) was prepared and dispensed in 5 ml amounts into test tubes and autoclaved for 20 minutes at 121° C. The biocides were added to the test tubes in the desired concentrations, and then 100 microliters of a 24-hour grown suspension of Pseudomonas aeruginosa or Enterobacter aerogenes cells were added to the respective test tubes to give a final count of approximately 10^6 cfu/ml and incubated at 37° C. at the indicated contact times.
(§2) End points for the various mixtures were then compared with the end points for the pure active ingredients alone in concomitantly prepared flasks or test tubes.
(§3) which produced an end point.
(§4) Qb=Lowest concentration of compound B in parts per million, acting alone,
(§5) QA=Lowest concentration of compound A in parts per million, in the mixture,
(§6) QB=Lowest concentration of compound B in parts per million, in the mixture,
(§7) When the sum of QA/Qa and QB/Qb is greater than one, antagonism is indicated. When the sum is equal to one, additivity is indicated. When the sum is less than one, synergism exists.
Contact time was 15 hours. The MCA was obtained by combinations of ammonium sulfate in the form of Oxamine 6150 or Busan 1215 (all from Buckman Laboratories, Memphis, Tenn.) and the oxidant, Bulab 6004 (from Buckman Laboratories). The peracetic acid was from Sigma-Aldrich (32 wt. % in dilute acetic acid) which was diluted in deionized water to desired concentration range prior to adding it to the test systems.

[2] = tested on: Pseudomonas aeruginosa; experiment: as above; assay type: cell-based; settings: contact time 24 hours, 37° C., approx. 10^6 cfu/ml, complete prevention of growth
Description: as §1, §2, §3, §4, §5, §6, §7
Contact time was 24 hours. The MCA and peracetic acid were obtained in the same manner as Example 1.

[3] = 37° C., approx. 10^6 cfu/ml, complete prevention of growth

NCl [monochloramine]
QB/Qb [1]: 0.5
Qb, lowest concentration of compound B acting alone which produced an end point [1, 3]: 100 ppm
Qb, lowest concentration of compound B acting alone which produced an end point [2]: 50 ppm

CC(=O)OO [peracetic acid]
Qa, concentration of compound A acting alone which produced an end point [1, 3]: 25.0 ppm
Qa, concentration of compound A acting alone which produced an end point [2]: 10 ppm
